Experimental findings from ChEMBL document CHEMBL1139353, “Discovery of a new class of potential multifunctional atypical antipsychotic agents targeting dopamine D3 and serotonin 5-HT1A and 5-HT2A receptors: design, synthesis, and effects on behavior” (J Med Chem, 2009) are described below.

Data set [1] has as its target T1, 5-hydroxytryptamine receptor 1A (Rattus norvegicus, UniProt P19327).
T1 sequence (P19327 whole entry): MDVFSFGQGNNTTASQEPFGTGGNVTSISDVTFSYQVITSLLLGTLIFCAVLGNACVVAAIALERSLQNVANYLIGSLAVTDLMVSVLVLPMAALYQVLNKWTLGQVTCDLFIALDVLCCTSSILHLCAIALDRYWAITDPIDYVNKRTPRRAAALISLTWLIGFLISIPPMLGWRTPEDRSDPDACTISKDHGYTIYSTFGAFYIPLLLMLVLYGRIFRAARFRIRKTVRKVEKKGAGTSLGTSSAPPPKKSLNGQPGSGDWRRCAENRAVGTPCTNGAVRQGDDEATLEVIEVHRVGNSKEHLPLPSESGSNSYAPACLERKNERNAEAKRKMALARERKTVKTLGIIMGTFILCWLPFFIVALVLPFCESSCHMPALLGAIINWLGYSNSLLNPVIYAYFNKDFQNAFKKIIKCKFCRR
As to the kind of experiment: biochemical.
Description: Displacement of [3H]8OH-DPAT from 5HT1A receptor in CRL:CD(SD)BR-COBS rat hippocampus by scintillation spectrometry

Data set [2] addresses Voltage-gated inwardly rectifying potassium channel KCNH2 (Homo sapiens, UniProt Q12809).
Description: Binding affinity to human ERG expressed in HEK293 cells by whole cell patch clamp method
A further data set addresses D(3) dopamine receptor (Homo sapiens, UniProt P35462). As to the kind of experiment: biochemical.
Data set [3] concerns the target 5-hydroxytryptamine receptor 2A (Rattus norvegicus, UniProt P14842).
Description: Displacement of [3H]ketanserin from 5HT2A receptor in CRL:CD(SD)BR-COBS rat cortex by scintillation spectrometry
The next data set has as its target D(1A) dopamine receptor (Rattus norvegicus, UniProt P18901).
The target of data set [4] is D(1A) dopamine receptor (Rattus norvegicus) (UniProt P18901). As to the kind of experiment: Displacement of [3H]SCH23390 from dopamine D1 receptor in CRL:CD(SD)BR-COBS rat striatum at 100 uM by scintillation spectrometry. In general terms: Displacement assays read how much labelled ligand stays bound in the presence of the test substance.
Chain of D(1A) dopamine receptor (Rattus norvegicus) (P18901 whole entry): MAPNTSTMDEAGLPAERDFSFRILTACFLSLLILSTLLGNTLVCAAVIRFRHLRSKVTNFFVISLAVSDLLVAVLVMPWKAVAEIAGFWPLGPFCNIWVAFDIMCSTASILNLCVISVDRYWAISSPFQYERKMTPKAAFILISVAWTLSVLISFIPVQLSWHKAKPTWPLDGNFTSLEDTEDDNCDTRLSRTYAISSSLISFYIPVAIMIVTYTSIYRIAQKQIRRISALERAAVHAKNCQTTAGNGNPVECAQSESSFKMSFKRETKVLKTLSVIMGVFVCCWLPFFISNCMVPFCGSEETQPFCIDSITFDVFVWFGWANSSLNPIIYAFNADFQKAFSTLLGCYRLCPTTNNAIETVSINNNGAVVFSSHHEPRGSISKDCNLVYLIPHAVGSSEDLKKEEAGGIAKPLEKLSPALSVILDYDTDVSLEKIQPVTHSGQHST
The species named for data set [5] is Mus musculus. As to the kind of experiment: animal or person. The following applies: NMRI.
Description: Antipsychotic activity in NMRI mouse assessed as reduction in phencyclidine-induced locomotor activity administered 30 mins prior to testing measured for 60 mins
For data set [6], the species on record is Mus musculus. As to conditions: in vivo, 0.5 h.
Description: Sedative activity in NMRI mouse assessed as reduction in spontaneous locomotor activity administered 30 mins prior to testing
Data set [7] is filed under the species Mus musculus. As to the kind of experiment: animal or person. As to conditions: NMRI. The source holds these as a separate data set.
Description: Antipsychotic activity in NMRI mouse assessed as reduction in methamphetamine-induced locomotor activity administered 30 mins prior to testing measured for 60 mins
The species entered for data set [8] is Mus musculus. The following applies: in vivo, sc, 1 h.
Description: Toxicity in sc dosed NMRI mouse assessed as cataleptogenic potential administered 30 mins prior to testing measured every 15 mins for 60 mins by horizontal bar test

Calls of active or inactive are those of the source. No cut-off for these calls is given here. Bounds are passed on as bounds.

For orientation: Ki means the equilibrium dissociation constant of an inhibitor or competing ligand from its target. A high value points to a looser hold on the target. For orientation: ED50 means the midpoint of the dose-response relation. Lower therefore signals greater potency.

Chain of 5-hydroxytryptamine receptor 2A (P14842 whole entry): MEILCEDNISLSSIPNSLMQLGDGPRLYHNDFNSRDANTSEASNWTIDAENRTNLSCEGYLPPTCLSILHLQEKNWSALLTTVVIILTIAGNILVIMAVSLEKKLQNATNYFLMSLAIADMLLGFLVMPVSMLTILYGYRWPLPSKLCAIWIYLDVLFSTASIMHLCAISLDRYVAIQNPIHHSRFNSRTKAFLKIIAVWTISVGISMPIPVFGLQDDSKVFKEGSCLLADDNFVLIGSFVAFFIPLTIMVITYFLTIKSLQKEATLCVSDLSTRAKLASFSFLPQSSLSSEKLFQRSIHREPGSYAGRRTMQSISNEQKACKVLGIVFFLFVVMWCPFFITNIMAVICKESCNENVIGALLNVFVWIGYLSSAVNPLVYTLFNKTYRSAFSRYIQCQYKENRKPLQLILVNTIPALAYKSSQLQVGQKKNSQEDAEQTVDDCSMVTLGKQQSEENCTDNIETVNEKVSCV
Chain of D(1A) dopamine receptor (P18901 whole entry): as the sequence (P18901 whole entry) above
Chain of D(3) dopamine receptor (P35462 whole entry): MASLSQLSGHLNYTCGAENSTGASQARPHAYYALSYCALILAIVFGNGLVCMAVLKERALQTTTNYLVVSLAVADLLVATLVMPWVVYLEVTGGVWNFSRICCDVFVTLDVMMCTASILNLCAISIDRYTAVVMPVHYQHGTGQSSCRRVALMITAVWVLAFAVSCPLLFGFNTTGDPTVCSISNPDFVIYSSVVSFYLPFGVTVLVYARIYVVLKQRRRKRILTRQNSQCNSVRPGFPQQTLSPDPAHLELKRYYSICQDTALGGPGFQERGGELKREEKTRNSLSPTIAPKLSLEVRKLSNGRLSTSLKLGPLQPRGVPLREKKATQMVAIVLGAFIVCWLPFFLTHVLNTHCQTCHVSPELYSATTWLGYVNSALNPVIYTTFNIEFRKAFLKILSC
Chain of Voltage-gated inwardly rectifying potassium channel KCNH2 (Q12809 whole entry): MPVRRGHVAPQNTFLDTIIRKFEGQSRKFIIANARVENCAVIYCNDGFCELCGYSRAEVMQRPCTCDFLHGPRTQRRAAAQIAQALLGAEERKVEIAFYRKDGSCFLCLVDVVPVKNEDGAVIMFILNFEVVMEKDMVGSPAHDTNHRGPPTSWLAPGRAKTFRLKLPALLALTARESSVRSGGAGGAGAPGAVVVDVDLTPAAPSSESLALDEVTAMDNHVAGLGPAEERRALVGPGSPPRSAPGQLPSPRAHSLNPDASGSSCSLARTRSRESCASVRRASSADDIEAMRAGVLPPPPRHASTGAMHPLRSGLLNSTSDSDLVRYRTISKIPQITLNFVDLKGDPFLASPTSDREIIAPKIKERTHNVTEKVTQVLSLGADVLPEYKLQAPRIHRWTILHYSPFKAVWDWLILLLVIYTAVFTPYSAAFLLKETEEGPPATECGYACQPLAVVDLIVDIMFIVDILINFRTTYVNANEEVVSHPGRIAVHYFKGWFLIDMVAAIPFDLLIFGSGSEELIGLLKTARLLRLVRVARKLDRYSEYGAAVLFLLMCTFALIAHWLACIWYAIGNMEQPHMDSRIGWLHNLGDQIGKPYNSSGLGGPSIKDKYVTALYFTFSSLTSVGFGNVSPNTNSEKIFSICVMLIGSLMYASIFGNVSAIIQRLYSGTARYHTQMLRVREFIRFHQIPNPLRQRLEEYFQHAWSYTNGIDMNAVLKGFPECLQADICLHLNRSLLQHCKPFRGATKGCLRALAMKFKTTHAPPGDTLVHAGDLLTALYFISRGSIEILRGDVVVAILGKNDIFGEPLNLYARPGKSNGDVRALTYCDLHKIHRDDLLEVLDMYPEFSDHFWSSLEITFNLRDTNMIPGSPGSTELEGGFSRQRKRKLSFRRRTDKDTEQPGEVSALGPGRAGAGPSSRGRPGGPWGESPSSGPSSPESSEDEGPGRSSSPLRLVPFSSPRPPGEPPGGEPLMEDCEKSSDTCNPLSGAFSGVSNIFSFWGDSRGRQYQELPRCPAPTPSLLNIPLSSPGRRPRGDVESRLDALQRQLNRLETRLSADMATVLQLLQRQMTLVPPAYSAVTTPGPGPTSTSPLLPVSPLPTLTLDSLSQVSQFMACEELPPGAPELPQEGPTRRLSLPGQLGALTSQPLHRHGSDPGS
Description for D(3) dopamine receptor: Displacement of [3H]7OH-DPAT from dopamine D3 receptor expressed in Sf9 cells by scintillation spectrometry

Turning to `COc1cccc2cc3n(c12)CCN(CCCCNC(=O)C1=Cc2ccccc2CN1)C3`, the inhibitory constant (Ki) is 28 nM in data set [1]; 1840 nM in data set [2]; 33.5 nM at D(3) dopamine receptor; 164 nM in data set [3]; greater than 10000 nM at D(1A) dopamine receptor.

Consider `Clc1cccc(N2CCN(CCCCOc3ccc4cccnc4c3)CC2)c1Cl`, for which the Ki stood at 4 nM in [1], 8.2 nM at D(3) dopamine receptor and 127 nM in [3]. Also, the result in data set [4] was inactive.

Consider `O=C1c2cc3ccccc3n2CCN1CCCCN1CCN(c2cccc(Cl)c2Cl)CC1`, for which the inhibitory constant (Ki) in [1] is 9.3 nM; in [2], 200 nM; on D(3) dopamine receptor it was 0.105 nM; in data set [3], 83 nM; on D(1A) dopamine receptor it was 4370 nM. Further, the 50% effective dose (ED50) in the data set listed under Mus musculus [5] was greater than 3 mg/kg; in the data set filed under Mus musculus [6], greater than 30 mg/kg; in the data set filed under Mus musculus [7], 3.7 mg/kg.

With `COc1cccc2cc3n(c12)CCN(CCCCN1CCn2c(cc4ccccc42)C1=O)C3`, the inhibition constant Ki in data set [1] is 33 nM; in [2] it was 260 nM; on D(3) dopamine receptor, 8.6 nM; in data set [3] it was 200 nM; at D(1A) dopamine receptor it was greater than 10000 nM.

On to `O=C(NCCCCN1CCN(c2cccc(Cl)c2Cl)CC1)c1cc2ccccc2cn1`, for which the Ki amounted to 5 nM in data set [1]; 200 nM in [2]; 0.099 nM on D(3) dopamine receptor; 41 nM in [3]; 4600 nM on D(1A) dopamine receptor.

In the case of `O=C1c2cc3ccccc3n2CCN1CCCCN1CCN(c2ccc(Cl)cc2Cl)CC1`, the inhibitory constant (Ki) is 3.2 nM on D(3) dopamine receptor, 300 nM in data set [3] and 4320 nM at D(1A) dopamine receptor.

For the compound `Clc1cccc(N2CCN(CCCCCOc3cc4ccccc4cn3)CC2)c1Cl`, the Ki in [1] turned out to be 18 nM; in [2] it was 210 nM; at D(3) dopamine receptor, 0.14 nM; in data set [3] it was 57 nM. Also, the ED50 in the data set listed under Mus musculus [5] was greater than 10 mg/kg; in the data set listed under Mus musculus [6] it was greater than 30 mg/kg; in the data set listed under Mus musculus [7], greater than 10 mg/kg.

Regarding `N#Cc1cccc(N2CCN(CCCCNC(=O)c3cc4ccccc4o3)CC2)c1`, the Ki was 390 nM in data set [2], 0.54 nM on D(3) dopamine receptor and greater than 10000 nM at D(1A) dopamine receptor.

Turning to `O=C(NCCCCN1CCN(c2cccc(Cl)c2)CC1)c1cc2ccccc2cn1`, the Ki stood at 14.7 nM in [1]; 300 nM in [2]; 0.27 nM on D(3) dopamine receptor; 23.4 nM in [3]; 5500 nM at D(1A) dopamine receptor. Besides, the figures for the ED50 in the data set filed under Mus musculus [5], in the data set filed under Mus musculus [6] and in the data set filed under Mus musculus [7] were 6.7 mg/kg, 14 mg/kg and 4.2 mg/kg, respectively.

Consider `Clc1cccc(N2CCN(CCCCOc3cc4ccccc4cn3)CC2)c1Cl`, for which the inhibition constant (Ki) in data set [1] was determined as 24.2 nM; in data set [2], 160 nM; at D(3) dopamine receptor, 32.9 nM; in data set [3], 123 nM.

`O=C(CCCN1CCC(O)(c2ccc(Cl)cc2)CC1)c1ccc(F)cc1` [HALOPERIDOL]: the ED50 turned out to be 0.09 mg/kg in the data set filed under Mus musculus [5], 0.08 mg/kg in the data set listed under Mus musculus [6] and 0.19 mg/kg in the data set listed under Mus musculus [8].

Take `COc1cccc2c1C1CCN(CCCCNC(=O)C3=Cc4ccccc4CN3)CC1=N2` (stereo not given): the Ki is 118 nM in [1], 6 nM on D(3) dopamine receptor, 149 nM in data set [3] and greater than 10000 nM at D(1A) dopamine receptor.

`O=C(NCCCCN1CCN(c2ccc(Cl)cc2Cl)CC1)c1cc2cc(Cl)ccc2[nH]1`: the median effective dose (ED50) in the data set filed under Mus musculus [5] is greater than 30 mg/kg. On D(3) dopamine receptor, this compound showed a Ki of 0.38 nM.

For `CN1CCN(C2=Nc3cc(Cl)ccc3Nc3ccccc32)CC1` [CLOZAPINE], the 50% effective dose (ED50) is 1.1 mg/kg in the data set listed under Mus musculus [5], 2.4 mg/kg in the data set listed under Mus musculus [6], greater than 30 mg/kg in the data set filed under Mus musculus [8] and 2.5 mg/kg in the data set filed under Mus musculus [7].

Regarding `Cc1cc2c(s1)Nc1ccccc1N=C2N1CCN(C)CC1` [OLANZAPINE], in [2], the Ki came to 36000 nM. In other words, the double-digit micromolar range.

On to `O=C(NCCCCN1CCN(c2ccc(Cl)cc2Cl)CC1)c1cc2ccccc2[nH]1`, for which the 50% effective dose (ED50) in the data set filed under Mus musculus [5] is greater than 30 mg/kg.

`N#Cc1cccc(N2CCN(CCCCN3CCn4c(cc5ccccc54)C3=O)CC2)c1`: the inhibition constant (Ki) is 3.7 nM at D(3) dopamine receptor, 389 nM in data set [3] and greater than 10000 nM on D(1A) dopamine receptor.
